Consider 1 compound from patent US20190216751A1, “Compositions and Methods for the Treatment and Prevention of Cancer” (California State University Northridge, priority 2017, published 2019).

Assay [1] relates to FOXP3+ T regulatory cell populations. The note with it: increasing concentrations of GC7, type 1 diabetic mice in vivo; cited from earlier work.
Another assay deals with 4T1 cells. Briefly: Cell proliferation assay (CellTiter 96 AQueous One, MTS). The class given is cell-based, mouse. From the text: (§1) The next research questions revolved around asking how TGFβ is regulating eIF5A and what other proteins might be involved to completely block TGFβ-induced EMT. This led to histone deacetylase enzyme 6 (HDAC6). HDAC6 has been previously reported to be responsible for the deacetylation of eIF5A in the nucleus in order to make it readily available for hypusination and later transport out in the cytoplasm for functioning as a translation factor. To determine if it were possible to further increase the efficacy or potency of GC7, the inventors co-treated with Tubastatin A (an HDAC6 inhibitor) in 4T1 and 67NR cells as well as MDA-MB-468 cells which initially were not very sensitive to GC7. Triple negative human breast cancer cell line, […], was also used to see if another cell line representative of this breast cancer subtype was sensitive towards DHPS and HDAC6 inhibition. (FIGS. 5A and 5B). Here, are shown cell viability graphs for these four cell lines pretreated with GC7 at 1 μM and after 12 hours were exposed to various concentrations of Tubastatin A (TubA) ranging from 0.1 nM to 100 μM. […] MDA-MB-468 and BT549 cells remained to be insensitive to TubA with or without GC7 pretreatment (FIG. 5A). Next, the inventors performed the opposite cell viability experiment in which these four cell lines were pretreated with TubA at 1 μM and then exposed these cells to various concentrations of GC7 ranging from 0.1 nM to 1 mM. […] 4T1 cells were treated with TubA at 10 μM, GC7 at 10 μM or both drugs simultaneously for 48, 72 and 96 hours. […] To test this, the inventors looked further into the changes of eIF5A localization when treating with TubA, GC7 or both drugs simultaneously. In FIG. 5D is shown immunofluorescence staining of 4T1 cells treated with TubA at 10 μM, GC7 at 10 μM or both drugs at those same concentrations for 48 hours. […] DAPI was used to stain the nuclei shown in the […] channel and phase-contrast images are shown as reference (FIG. 5D). […] Protein lysates were also collected at the same time point described in FIG. 5D. Twenty μg of protein for each condition was run on a Bis-Tris […] gel then transferred onto a nitrocellulose membrane before staining total protein using Ponceau S (FIG. 5E).
(§2) The CellTiter 96® AQueous One Solution (Promega) was used to perform cell proliferation experiments. Cells were plated at 5e3 cells/mL at 200 μL/well in a 96-well plate and allowed to attach overnight. Cells were then treated with indicated drugs the next day at various concentrations. After 72 hours of drug treatments, 40 μL of AQueous One solution was added to each well. Absorbance readings were measured at 490 nm wavelength at 1.5, 2 and 3 hours (absorbance is directly proportional to the number of living cells).

In a further assay the test system is 67NR cells. Described as above. Format: cell-based, mouse.
Source text: as §1, §2

The test system of another assay is MCF10A. The description is as above. The class given is cell-based, human. As to conditions: non-malignant mammary cell line. How it is done: as §2
In the next assay the test system is MCF10CA1h cells. Briefly: Chicken CAM xenograft, tumor weight and metastasis (human Alu qPCR). Format: in vivo. How it is done: FIGS. 11A and 11B. […] Human triple negative MCF10CA1h breast cancer cells were pre-treated with TGFβ and fibronectin for 7 days to induce PEAK1-dependent epithelial-mesenchymal transition and tumorigenic potential. 1e6 cells were xenografted onto the chorioallantoic membrane of 10 day old chicken embryos in 20 uL of growth factor reduced Matrigel, and subsequently treated with a vehicle control, GC7, TubastatinA (TubA) or both GC7/TubA at either 1 uM (panel A) or 10 uM (panel B). Tumors were allowed to develop over the following 7 days and then harvested and weighed along with the indicated liver, lung and brain tissues. gDNA was isolated from these additional tissues to quantify human Alu repeat sequence composition normalized to host chicken GAPDH as a measure of relative cell metastasis to the indicated tissues.
Based on the partially impaired expression of Zeb1 in vitro, we wanted to assess whether this effect would result in altered metastatic dissemination using the in vivo chicken CAM system.
For orientation: Xenograft models place foreign cells or tissue in a host animal.

A further assay has as its system breast cancer cells. The experiment in a line: GC7 potency after induction of EMT by TGFβ. The note with it: induction of EMT by TGFβ treatment. Format: cell-based.
In assay [2] the test system is human triple negative breast cancer cells. The experiment in a line: Cell proliferation assay and hypusine western blot, response to GC7. The class given is cell-based. The note with it: FIGS. 2A and 3A. How it is done: Cell lines were plated in a 6 well plate at 1e5 cells/mL and left to attach overnight. Cells were then treated if necessary then lysed using Radioimmunoprecipitation assay (RIPA) buffer containing phosphatase and protease inhibitors and left to rotate at 4° C. for at least 3 hours. Lysates were then cleared by centrifugation at 12,000 RPM for 10 minutes at 4° C. Protein concentrations were determined using Bradford Assay. 4-12% Bis-Tris […] gels were used to run protein lysates at 20 μg of protein that were stained with NuPage LDS Sample Buffer. Gels were then transferred onto nitrocellulose membranes and exposed to primary antibody solutions at the following concentrations for each indicated antibody. PEAK1 (Millipore 1:400), E-cadherin (Cell Signaling 1:1,000), Hypusine (Thermo Scientific 1:1,000), eIF5A (Thermo Scientific 1:1,000) and β-actin (Pro-Sci 1:1,000). Secondary antibodies were used at a 1:5,000-1:10,000 dilution. Band intensity graphs were quantified using Fiji software after image thresholding.
The CellTiter 96® AQueous One Solution (Promega) was used to perform cell proliferation experiments. Cells were plated at 5e3 cells/mL at 200 μL/well in a 96-well plate and allowed to attach overnight. […] Absorbance readings were measured at 490 nm wavelength at 1.5, 2 and 3 hours (absorbance is directly proportional to the number of living cells).

For another assay, the system named is eIF5A. As to conditions: during GC7 treatment; cited from earlier work.
The subject of assay [3] is eIF5A localization in 67NR cells. Briefly: Immunofluorescence, subcellular localization of total eIF5A. Format: cell-based, mouse. As to conditions: 1 and 10 μM GC7, 48 hours. How it is done:
Thus, we interrogated the subcellular localization of eIF5A protein using immunofluorescent staining under control as well as 1 and 10 μM GC7 treatment conditions in triple negative breast cancer lines (FIGS. 12A and 12B).
Cells were plated at 1e4 cells/mL at 4 mL in a 6-well plate containing a sterile glass coverslip and allowed to attach overnight. Cells were then treated with appropriate inhibitors at indicated concentrations and time-points. Cells were first fixed using 4% paraformaldehyde for 20 minutes. Cells were then subjected to Triton-X to permeabilize the cells before treatment with specific antibodies in 2% BSA in PBS. After primary antibody incubation for 90 minutes, cells were washed with PBS three times before incubating with secondary antibodies in 2% BSA in PBS for 1 hour. Cells were again washed with PBS three times before set overnight staining with DAPI. Cells were then imaged using a Leica DMI6000 inverted microscope at 100× magnification.

[4] abbreviates: TubA 1 μM pretreatment, GC7 0.1 nM to 1 mM.
The mark [5] stands for this setting: 1 μM GC7, fibronectin and TGFβ pre-treated cells, 7 days.

Turning to `N=C(N)NCCCCCCCN.O=S(=O)(O)O` [GC7, N1-Guanyl-1,7-diaminoheptane], the “FOXP3+ T regulatory cell populations” value in assay [1] was “significant reduction in FOXP3+ T regulatory cell populations”. Also, in the assay with 4T1 cells (72 hours, 0.1 nM→1 mM), the “efficacy after GC7 treatment (cell viability)” value is “largest efficacy”. Moreover, the “change of potency of GC7 by TubA pretreatment (cell viability)” value with 4T1 cells (setting [4]) is given as “subtly decreased”. Besides, in the assay with 67NR cells (72 hours, 0.1 nM→1 mM), the “efficacy after GC7 treatment (cell viability)” value is reported as “largest efficacy”. Further, in the assay on 67NR cells (setting [4]), the “change of potency of GC7 by TubA pretreatment (cell viability)” value was “this effect was not seen in the three other cell lines”. For the same compound, in the assay with MCF10A, the “sensitivity to GC7 treatment” value is on record as “one of the most sensitive”. In the assay with MCF10CA1h cells (setting [5]), the “metastatic dissemination to lung” value is recorded as “significantly reduced” and the primary tumor mass result is “unaffected”. Also, the metastasis result with MCF10CA1h cells (low doses of GC7 (1 uM, panel A)) is “reduces metastasis”. Also, the “GC7 potency after TGFβ-induced EMT” value with breast cancer cells is on record as “increases GC7 potency”. Moreover, the “sensitivity to GC7 treatment” value in assay [2] is on record as “insensitive”. In the assay on eIF5A, the “FOXP3+ regulatory T cells at the site of the tumor” value is recorded as “significantly increased”; the “pancreatic and splenic CD8+ lymphocytes” value is on record as “did not seem to be affected”; the “recruitment of CD4+ T cells at the site of the tumor” value was “significantly decrease”. Further, the “nuclear depletion of eIF5A” value in assay [3] is “Nuclear depletion of eIF5A was observed”.
